Structures can show the parent of a compound that is named as a salt.
Columns and labels:
Format in all cases: in vivo
Barnyard Grass [1] = experiment: Inhibition of barnyard grass by butachlor and safening agent sprayed on soil surface, flooded pots (Example 17, Table III); settings: ~21 days, mean of two replicates
Procedure: (§1) 5.08 cm. of a good grade of top soil is placed in a 7.62 cm. deep plastic pot. A predetermined number of barnyard grass seeds are applied to the soil surface. A measured quantity of the safening agent dispersed or dissolved in a suitable carrier is sprayed on the soil surface. A measured quantity of butachlor herbicide dissolved in a solvent is sprayed on the soil surface. Pre-soaked rice is seeded into the pots that were previously flooded with water. The water level is lowered below the soil surface for one week to allow barnyard grass to emerge. The pots are flooded just above the soil surface for the duration of the test. The plants are observed at the end of approximately 21 days and the results in terms of percent inhibition recorded. For each test, pots are prepared containing soil treated only with butachlor. For each test, pots are prepared containing soil treated only with the safening agent. Pots are also prepared containing untreated soil.

rice [2] = experiment: Safening effect against butachlor injury to pre-soaked rice, soil surface application, flooded pots (Example 16, Table II); design: key: herbicide injury alone + safener injury alone (max 100) minus combined injury; settings: safening agent 0.56 kg/h, ~21 days, mean of two replicates
Procedure: (§2) A good grade of top soil is placed in a container and compacted to a depth of approximately 1.27 cm. from the top of said container. A predetermined number of rice seeds to be tested are placed on top of the soil. A quantity of soil sufficient to substantially fill the container is measured and placed in a second container. A measured quantity of the safening agent dispersed or dissolved in a suitable carrier is applied to the soil in the second container. A measured quantity of butachlor dispersed or dissolved in a suitable carrier is then sprayed on the soil already treated with the safening agent. The soil containing the safening agent and herbicide is thoroughly mixed. This mixing is sometimes referred to as incorporation of the herbicide and safening agent into the soil. The mixing or incorporation provides a substantially uniform distribution of the safening agent and herbicide throughout the soil. The seeds are covered with the soil containing the safening agent and herbicide and the pans are leveled. The pans are then placed on a sand bench in the greenhouse and watered from below as needed. The plants are observed at the end of approximately 21 days and the results in terms of percent inhibition of each seed lot are recorded. For each test series a pan of plants is also prepared containing no herbicide and no safening agent as a control. Additionally, for each test, a pan of plants is prepared with soil covering the seed containing no herbicide and only the measured amount of safening agent being incorporated into the soil covering the seeds to ascertain any herbicidal effect of the safening agent alone. For each series of tests the herbicidal effect of the herbicide is observed from pans of plants treated with the same quantity of herbicide alone. The "safening effect" is determined by adding the hericidal effect of the herbicide when applied alone to the herbicidal effect of the safening agent when applied alone (in no instance, however, will this sum be greater than 100) and substracting from that the herbicidal effect obtained when the herbicide and safening agent are incorporated into the soil as discussed above.
A good grade of top soil is placed in a plastic pot. A measured quantity of the safening agent dispersed or dissolved in a suitable carrier is sprayed on the soil surface. A measured quantity of butachlor herbicide dissolved in a solvent is sprayed on the soil surface. Presoaked rice is seeded into the pots that were previously flooded with water and the water level lowered below the soil surface for one week. The pots are flooded at least up to the soil surface for the duration of the test. The plants are observed at the end of approximately 21 days and the results in terms of the percent inhibition of rice is recorded. As in Example 15, for each test pots are prepared containing soil treated only with butachlor. For each test, pots are also prepared containing soil treated only with the safening agent. Pots are also prepared in which the soil is not treated with either the herbicide or the safening agent. The safening effect is determined in accordance with Example 15.
Table II summarizes the results obtained when the compounds of the invention were tested in accordance with the procedure of Example 16.

rice [3] = experiment: Inhibition of rice by butachlor and safening agent sprayed on soil surface, flooded pots (Example 17, Table III); settings: ~21 days, mean of two replicates
Procedure: as §1

rice [4] = experiment: Safening effect against butachlor injury to rice, safening agent and herbicide incorporated in soil (Example 15, Table I); design: key: herbicide-alone + safener-alone effect (max 100) minus combined effect; settings: safening agent 8.96 kg/h, ~21 days
Procedure: as §2
Table I summarizes the results obtained when the compounds of the invention were tested in accordance with the procedure of Example 15.

rice [5] = experiment: Inhibition of rice, safening agent and butachlor applied to soil surface, flooded pots (Example 18, Table IV); settings: ~21 days, mean of two replicates
Procedure: as §1, with “safening agent and butachlor dispersed or” for “safening agent dispersed or”, “carrier is applied to the soil” for “carrier is sprayed on the soil surface. A measured quantity of butachlor herbicide dissolved in a solvent is sprayed on the soil”, “for one week. The pots” for “for one week to allow barnyard grass to emerge. The pots”, “also prepared with untreated soil.” for “also prepared containing untreated soil.”

Barnyard Grass [6] = experiment: Inhibition of barnyard grass, safening agent and butachlor applied to soil surface, flooded pots (Example 18, Table IV); settings: ~21 days, mean of two replicates
Procedure: as §1, with “safening agent and butachlor dispersed or” for “safening agent dispersed or”, “carrier is applied to the soil” for “carrier is sprayed on the soil surface. A measured quantity of butachlor herbicide dissolved in a solvent is sprayed on the soil”, “for one week. The pots” for “for one week to allow barnyard grass to emerge. The pots”, “also prepared with untreated soil.” for “also prepared containing untreated soil.”

[7] = safening agent 0.07 kg/h + butachlor 0.07 kg/h
[8] = safening agent 0.07 kg/h + butachlor 0.28 kg/h
[9] = safening agent 0.07 kg/h + butachlor 1.12 kg/h
[10] = safening agent 0.28 kg/h + butachlor 0.07 kg/h
[11] = safening agent 0.28 kg/h + butachlor 0.28 kg/h
[12] = safening agent 0.28 kg/h + butachlor 1.12 kg/h
[13] = safening agent 1.12 kg/h + butachlor 0.07 kg/h
[14] = safening agent 1.12 kg/h + butachlor 0.28 kg/h
[15] = safening agent 1.12 kg/h + butachlor 1.12 kg/h

CCOC(=O)c1sc(Cl)nc1-c1ccc(F)cc1 [Example 3, Ethyl 2-Chloro-4-(p-Fluorophenyl)-5-Thiazolecarboxylate]
Inhibition, Barnyard Grass (Barnyard Grass [1]; [7]): 97%
Inhibition, Barnyard Grass (Barnyard Grass [1]; [8]): 99%
Inhibition, Barnyard Grass (Barnyard Grass [1]; [9]): 100%
Inhibition, Barnyard Grass (Barnyard Grass [1]; [10]): 92%
Inhibition, Barnyard Grass (Barnyard Grass [1]; [11]): 100%
Inhibition, Barnyard Grass (Barnyard Grass [1]; [12]): 100%
Inhibition, Barnyard Grass (Barnyard Grass [1]; [13]): 92%
Inhibition, Barnyard Grass (Barnyard Grass [1]; [14]): 100%
Inhibition, Barnyard Grass (Barnyard Grass [1]; [15]): 100%
Inhibition, Barnyard Grass (Barnyard Grass [1]; safening agent alone 0.07 kg/h): 0%
Inhibition, Barnyard Grass (Barnyard Grass [1]; safening agent alone 0.28 kg/h): 0%
Inhibition, Barnyard Grass (Barnyard Grass [1]; safening agent alone 1.12 kg/h): 0%
Safening Effect (rice [2]; butachlor 0.07 kg/h): 30
Safening Effect (rice [2]; butachlor 0.28 kg/h): 73
Safening Effect (rice [2]; butachlor 1.12 kg/h): 62
Inhibition, Rice (rice [3]; [7]): 0%
Inhibition, Rice (rice [3]; [8]): 5%
Inhibition, Rice (rice [3]; [9]): 70%
Inhibition, Rice (rice [3]; [10]): 0%
Inhibition, Rice (rice [3]; [11]): 5%
Inhibition, Rice (rice [3]; [12]): 58%
Inhibition, Rice (rice [3]; [13]): 0%
Inhibition, Rice (rice [3]; [14]): 0%
Inhibition, Rice (rice [3]; [15]): 43%
Inhibition, Rice (rice [3]; safening agent alone 0.07 kg/h): 0%
Inhibition, Rice (rice [3]; safening agent alone 0.28 kg/h): 0%
Inhibition, Rice (rice [3]; safening agent alone 1.12 kg/h): 0%
Safening Effect (rice [4]; butachlor 6.72 kg/h): 65

CCOC(=O)c1sc(Oc2ccc(Cl)cc2Cl)nc1-c1ccccc1 [Ethyl 2-(2',4'-dichlorophenoxy)-4-phenyl-5-thiazolecarboxylate]
% Inhibition, Rice (rice [5]; [13]): 15%
% Inhibition, Rice (rice [5]; [14]): 88%
% Inhibition, Rice (rice [5]; [15]): 99%
% Inhibition, Rice (rice [5]; safening agent alone 1.12 kg/h): 0%
% Inhibition, Barnyard Grass (Barnyard Grass [6]; [13]): 83%
% Inhibition, Barnyard Grass (Barnyard Grass [6]; [14]): 98%
% Inhibition, Barnyard Grass (Barnyard Grass [6]; [15]): 100%
% Inhibition, Barnyard Grass (Barnyard Grass [6]; safening agent alone 1.12 kg/h): 0%

O=C(Cl)c1sc(Cl)nc1-c1ccccc1 [Example 12, 2-Chloro-4-Phenyl-5-Thiazolecarbonyl Chloride]
Safening Effect (rice [2]; butachlor 0.07 kg/h): 35
Safening Effect (rice [2]; butachlor 0.28 kg/h): 80
Safening Effect (rice [2]; butachlor 1.12 kg/h): 62
Safening Effect (rice [4]; butachlor 4.48 kg/h): 50

CCOC(=O)c1sc(Cl)nc1-c1cccc(C)c1 [Example 6, Ethyl 2-Chloro-4-(m-Tolyl)-5-Thiazolecarboxylate]
Safening Effect (rice [4]; butachlor 6.72 kg/h): 65

O=C(O)c1sc(Cl)nc1-c1ccccc1 [Example 11, 2-Chloro-4-Phenyl-5-Thiazolecarboxylic Acid]
Safening Effect (rice [2]; butachlor 0.07 kg/h): * (Safening effect between 0 and 20)
Safening Effect (rice [2]; butachlor 0.28 kg/h): 63
Safening Effect (rice [2]; butachlor 1.12 kg/h): 45
Safening Effect (rice [4]; butachlor 4.48 kg/h): 50

CCCOC(=O)c1sc(Cl)nc1-c1ccccc1 [Example 14, n-Propyl 2-Chloro-4-Phenyl-5-Thiazolecarboxylate]
Safening Effect (rice [4]; butachlor 4.48 kg/h): 20

O=C(O)c1sc(Cl)nc1-c1ccccc1 [triethanolamine salt of 2-chloro-4-phenyl-5-thiazolecarboxylic acid]
% Inhibition, Rice (rice [5]; [13]): 0%
% Inhibition, Rice (rice [5]; [14]): 20%
% Inhibition, Rice (rice [5]; [15]): 60%
% Inhibition, Rice (rice [5]; safening agent alone 1.12 kg/h): 0%
% Inhibition, Barnyard Grass (Barnyard Grass [6]; [13]): 88%
% Inhibition, Barnyard Grass (Barnyard Grass [6]; [14]): 99%
% Inhibition, Barnyard Grass (Barnyard Grass [6]; [15]): 100%
% Inhibition, Barnyard Grass (Barnyard Grass [6]; safening agent alone 1.12 kg/h): 0%

CCOC(=O)c1sc(OCC)nc1-c1ccccc1 [Example 8, Ethyl 2-Ethoxy-4-Phenyl-5-Thiazolecarboxylate]
% Inhibition, Rice (rice [5]; [13]): 30%
% Inhibition, Rice (rice [5]; [14]): 88%
% Inhibition, Rice (rice [5]; [15]): 95%
% Inhibition, Rice (rice [5]; safening agent alone 1.12 kg/h): 0%
% Inhibition, Barnyard Grass (Barnyard Grass [6]; [13]): 100%
% Inhibition, Barnyard Grass (Barnyard Grass [6]; [14]): 100%
% Inhibition, Barnyard Grass (Barnyard Grass [6]; [15]): 100%
% Inhibition, Barnyard Grass (Barnyard Grass [6]; safening agent alone 1.12 kg/h): 0%
Safening Effect (rice [4]; butachlor 4.48 kg/h): 75

CCOC(=O)c1sc(Cl)nc1-c1cccc(C(F)(F)F)c1 [Example 2, Ethyl 2-Chloro-4-m-Trifluoromethylphenyl-5-thiazolecarboxylate]
Safening Effect (rice [2]; butachlor 0.07 kg/h): 68
Safening Effect (rice [2]; butachlor 0.28 kg/h): 26
Safening Effect (rice [2]; butachlor 1.12 kg/h): * (Safening effect between 0 and 20)
Safening Effect (rice [4]; butachlor 4.48 kg/h): 50

CCOC(=O)c1sc(OCC)nc1-c1cccc(C(F)(F)F)c1 [Example 9, Ethyl 2-Ethoxy-4-(m-Trifluoromethylphenyl)-5-Thiazolecarboxylate]
Safening Effect (rice [4]; butachlor 4.48 kg/h): 20

CCOC(=O)c1sc(Cl)nc1-c1ccc([N+](=O)[O-])cc1 [Example 7, Ethyl 2-Chloro-4-(p-Nitrophenyl)-5Thiazolecarboxylate]
Safening Effect (rice [2]; butachlor 0.07 kg/h): * (Safening effect between 0 and 20)
Safening Effect (rice [2]; butachlor 0.28 kg/h): 38
Safening Effect (rice [2]; butachlor 1.12 kg/h): * (Safening effect between 0 and 20)
Safening Effect (rice [4]; butachlor 4.48 kg/h): 25

CCOC(=O)c1sc(Cl)nc1-c1ccccc1Cl [Example 5, Ethyl 2-Chloro-4-(o-Chlorophenyl)-5-Thiazolecarboxylate]
Safening Effect (rice [4]; butachlor 6.72 kg/h): 65

CCOC(=O)c1sc(Oc2ccc(Cl)cc2Cl)nc1-c1cccc(C(F)(F)F)c1 [Example 10, Ethyl 2-(2',4'-Dichlorophenoxy)-4-(m-Trifluoromethylphenyl)-5-Thiazolecarboxylate]
Safening Effect (rice [2]; butachlor 0.07 kg/h): * (Safening effect between 0 and 20)
Safening Effect (rice [2]; butachlor 0.28 kg/h): * (Safening effect between 0 and 20)
Safening Effect (rice [2]; butachlor 1.12 kg/h): * (Safening effect between 0 and 20)
Safening Effect (rice [4]; butachlor 4.48 kg/h): 43

COC(=O)c1sc(Cl)nc1-c1ccccc1 [Example 13, Methyl 2-Chloro-4-Phenyl-5-Thiazolecarboxylate]
Safening Effect (rice [4]; butachlor 4.48 kg/h): 30
